Experimental data reported in ChEMBL document CHEMBL3044806, “Target-site mutation associated with glufosinate resistance in Italian ryegrass (Lolium perenne L. ssp. multiflorum)” (Pest Manag Sci, 2012).
pIC50: −log10 of the molar value.

Columns and labels:
Lolium multiflorum [1] = experiment: Resistance index, ratio of GR50 for glufosinate-resistant Lolium multiflorum MG (Italian ryegrass) expressing one amino acid substitution in plastidic GS2 gene aspartic acid for asparagine at position 171 to GR50 for glufosinate-susceptible Lolium multiflorum (Italian ryegrass)C2; format: functional
Lolium multiflorum [2] = experiment: (§1) Induction of ammonia accumulation in glufosinate-susceptible Lolium multiflorum C2 (Italian ryegrass) seedlings at 3-leaf stage assessed as ammonia level per gram of leaves fresh weight at 0.4 kg Ai/ha measured 72 hr after compound treatment under greenhouse conditions (reference value: 14.79 +/- 4.09 ug/g of leaves fresh weight); format: functional
Glutamine synthetase [3] = target: T1, Glutamine synthetase (Lolium perenne, UniProt C5IW59); experiment: Inhibition of glutamine synthetase in glufosinate-susceptible Lolium multiflorum C1 (Italian ryegrass) seedlings; details: read-out: I50
T1 sequence (C5IW59 whole entry): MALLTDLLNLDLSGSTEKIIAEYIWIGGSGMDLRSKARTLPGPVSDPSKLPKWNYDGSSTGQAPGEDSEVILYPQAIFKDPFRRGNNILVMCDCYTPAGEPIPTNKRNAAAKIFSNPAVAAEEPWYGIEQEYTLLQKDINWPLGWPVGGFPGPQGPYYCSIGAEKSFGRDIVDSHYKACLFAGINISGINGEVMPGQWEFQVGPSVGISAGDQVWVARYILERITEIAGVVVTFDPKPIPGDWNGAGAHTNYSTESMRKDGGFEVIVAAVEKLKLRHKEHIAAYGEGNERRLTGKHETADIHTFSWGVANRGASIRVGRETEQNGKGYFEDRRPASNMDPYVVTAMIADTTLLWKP

Lolium multiflorum [4] = experiment: Resistance index, ratio of GR50 for glufosinate-resistant Lolium multiflorum MG (Italian ryegrass) expressing one amino acid substitution in plastidic GS2 gene aspartic acid for asparagine at position 171 to GR50 for glufosinate-susceptible Lolium multiflorum (Italian ryegrass)C1; format: functional
Lolium multiflorum [5] = experiment: as §1, with “24” for “72”; format: functional
Lolium multiflorum [6] = experiment: as §1, with “C1” for “C2”, “48” for “72”, “11.04” for “14.79”, “0.89” for “4.09”; format: functional
Lolium multiflorum [7] = experiment: as §1, with “C1” for “C2”, “96” for “72”, “11.04” for “14.79”, “0.89” for “4.09”; format: functional
Lolium multiflorum [8] = experiment: as §1, with “glufosinate-resistant” for “glufosinate-susceptible”, “MG” for “C2”, “24” for “72”, “12.41” for “14.79”, “0.97” for “4.09”; format: functional
Lolium multiflorum [9] = experiment: Herbicidal activity against glufosinate-resistant Lolium multiflorum MG (Italian ryegrass) expressing one amino acid substitution in plastidic GS2 gene aspartic acid for asparagine at position 171 assessed as reduction above-ground dry weight measured after 15 days post compound treatment under greenhouse conditions; format: functional
Lolium multiflorum [10] = experiment: as §1, with “glufosinate-resistant” for “glufosinate-susceptible”, “MG” for “C2”, “12.41” for “14.79”, “0.97” for “4.09”; format: functional
Lolium multiflorum [11] = experiment: as §1, with “multiflorum” for “multiflorum C2”, “three-leaf” for “3-leaf”, “24” for “72”, “11.04” for “14.79”, “0.89” for “4.09”; format: functional, C1
Lolium multiflorum [12] = experiment: as §1, with “48” for “72”; format: functional
Glutamine synthetase [13] = target: T1, Glutamine synthetase; experiment: Inhibition of glutamine synthetase in glufosinate-susceptible Lolium multiflorum C2 (Italian ryegrass) seedlings; details: read-out: I50
Glutamine synthetase [14] = target: T1, Glutamine synthetase; experiment: Inhibition of glutamine synthetase in glufosinate-resistant Lolium multiflorum MG (Italian ryegrass) seedlings; details: read-out: I50
Lolium multiflorum [15] = experiment: Herbicidal activity against glufosinate-susceptible Lolium multiflorum C1 (Italian ryegrass) assessed as reduction above-ground dry weight measured after 15 days post compound treatment under greenhouse conditions; format: functional
Lolium multiflorum [16] = experiment: Herbicidal activity against glufosinate-susceptible Lolium multiflorum C2 (Italian ryegrass) assessed as reduction above-ground dry weight measured after 15 days post compound treatment under greenhouse conditions; format: functional
Lolium multiflorum [17] = experiment: as §1, with “C1” for “C2”, “11.04” for “14.79”, “0.89” for “4.09”; format: functional
Lolium multiflorum [18] = experiment: as §1, with “glufosinate-resistant” for “glufosinate-susceptible”, “MG” for “C2”, “96” for “72”, “12.41” for “14.79”, “0.97” for “4.09”; format: functional
Lolium multiflorum [19] = experiment: as §1, with “glufosinate-resistant” for “glufosinate-susceptible”, “MG” for “C2”, “48” for “72”, “12.41” for “14.79”, “0.97” for “4.09”; format: functional
Lolium multiflorum [20] = experiment: as §1, with “96” for “72”; format: functional

CP(=O)(O)CCC(N)C(=O)O (stereo not given) [GLUFOSINATE]
Ratio (Lolium multiflorum [1]): 2.8 | Activity (Lolium multiflorum [2]): 353 µg/g | pIC50 (Glutamine synthetase [3]): 4.51 | Ratio (Lolium multiflorum [4]): 2.8 | Activity (Lolium multiflorum [5]): 244 µg/g | Activity (Lolium multiflorum [6]): 304 µg/g | Activity (Lolium multiflorum [7]): 428 µg/g | Activity (Lolium multiflorum [8]): 165 µg/g | GR50 (Lolium multiflorum [9]): 0.45 KgAi/ha | Activity (Lolium multiflorum [10]): 212 µg/g | Activity (Lolium multiflorum [11]): 225 µg/g | Activity (Lolium multiflorum [12]): 320 µg/g | pIC50 (Glutamine synthetase [13]): 3.86 | pIC50 (Glutamine synthetase [14]): 2.61 | GR50 (Lolium multiflorum [15]): 0.15 KgAi/ha | GR50 (Lolium multiflorum [16]): 0.18 KgAi/ha | Activity (Lolium multiflorum [17]): 332 µg/g | Activity (Lolium multiflorum [18]): 256 µg/g | Activity (Lolium multiflorum [19]): 187 µg/g | Activity (Lolium multiflorum [20]): 384 µg/g
